Experimental data reported in patent US5464834A, “N-substituted N'-heterobicyclic piperazines having pharmaceutical activity” (Adir et Compagnie, priority 1992, dated 1995).

How the values were obtained:
5HT1A receptors [1] = target: T1, 5HT1A receptors (Rattus norvegicus, UniProt P19327); assay: Flat body posture (FBP), agonist (alone) and antagonist (vs 8-OH-DPAT); type: in vivo, rat (male Wistar); set-up: from tissue; host or cells: whole living male Wistar rats (endogenous receptor)
T1 sequence (P19327 1-422): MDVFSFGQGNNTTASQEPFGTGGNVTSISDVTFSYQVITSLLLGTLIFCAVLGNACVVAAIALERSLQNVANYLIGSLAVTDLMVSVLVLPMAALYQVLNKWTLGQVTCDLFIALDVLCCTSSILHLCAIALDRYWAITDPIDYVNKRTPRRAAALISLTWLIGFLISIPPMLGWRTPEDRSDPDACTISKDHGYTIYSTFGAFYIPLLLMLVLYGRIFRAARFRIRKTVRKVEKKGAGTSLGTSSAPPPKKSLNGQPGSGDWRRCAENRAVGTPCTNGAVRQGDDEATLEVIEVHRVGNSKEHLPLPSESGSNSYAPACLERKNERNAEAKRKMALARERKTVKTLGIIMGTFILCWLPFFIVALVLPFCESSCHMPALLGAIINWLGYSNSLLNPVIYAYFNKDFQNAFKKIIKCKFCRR
Procedure: (§1) The tests were carried out using male Wistar rats weighing 200 to 220 g having free access to their food and to their drinking water in standard cages.
(§2) The animals are isolated individually for the tests for hypothermia, corticosterone secretion and flat body posture, or combined in groups of three for the tailflick test.
(§3) The compounds to be studied were administered by the subcutaneous route (s.c.) 60 minutes before the beginning of the test, that is to say 30 minutes before the solvent (agonist responses) or the 8-OH-DPAT (antagonist responses).
(§4) In all of the tests the solvent is used in parallel as a control. The animals were left to rest in their cage during the period between the injections and the evaluation. For the agonist studies, the solvent was administered at 1 ml/kg s.c. 30 minutes before the beginning of the test. For the antagonist studies, doses of 8-OH-DPAT that induce sub-maximal responses were chosen, that is doses of 0.63, 0.16, 0.16 and 0.16 mg/kg s.c. for, respectively, the tail flick test, flat body posture test, corticosterone secretion test and hypothermia test.
(§5) The same animals were used to evaluate the influence of the compounds studied on FBP and on the determination of the plasma concentration of CS. All of the tests were carried out in the morning between 10.30 and 12.300 that is to say when the circadian levels of CS are lowest.
25 minutes after the treatment (that is to say 5 minutes before decapitation) the animals are observed in their cages and the presence or absence of FBP is noted.
(§6) The presence of FBP is defined by a characteristic posture of the animal. That posture is in the ventral decubitus position with the posterior limbs clearly extended. 5 minutes after the observation of FBP, the animals are decapitated and the blood from the trunk is collected in cooled tubes containing 50 μl of a 10% EDTA solution. After centrifugation at 4000 revs/min, the plasma is removed and stored at -30° C. until determination.
(§7) In general, after variance analysis, the results are subjected to the Dunett test. The results are taken as significant if p <0.05.
For the dose-response for the induction and inhibition of FBP, the ED50 values (doses at which 50% of the animals show a response) were calculated by the Litchfield and Wilcoxon method.
(§8) The doses of the compounds tested are all expressed in base terms. Unless specified otherwise, all of the compounds were dissolved in sterile water (to which if necessary a few drops of lactic acid were added) and administered at a volume of 1 ml/kg s.c.

5HT1A receptors [2] = target: T1, 5HT1A receptors; assay: Drug discrimination (DD) 8-OH-DPAT; type: in vivo, rat (male Wistar); set-up: from tissue; host or cells: whole living male Wistar rats (endogenous receptor); conditions: rat, sc
Procedure: as §1
Male rats are maintained at 85% of their normal body weight by means of food restriction. In soundproofed chambers the animals are trained to press a pedal to obtain food according to an FR10 procedure (Fixed Ratio 10; the food is supplied to the rat when it has pressed the lever 10 times).
Daily sessions of 15 minutes are preceded by an injection of solvent or of the training drug (0.31 mg/kg of 8-OH-DPAT, j.p.). The animal receives a pellet of food after pressing 10 times on the "solvent" or "drug" pedal according to the compound administered before the session.
After the learning period the animals are tested twice a week (Wednesday and Friday). On the other three days training sessions are carried out.
On the training days the rats are given either solvent or 8-OH-DPAT 15 minutes before being tested.
On the test days the rats receive the chemical substance 60 minutes before the session.
The capacity of the chemical substance administered to induce a response (pressing on the "solvent" or "drug" (8-OH-DPAT ) lever ) is recorded.
7 animals chosen at random are used for each substance and for each dose. During the test period, the lever on which the rat first presses 10 times is determined as the lever chosen--a food pellet is then delivered. That selected lever will be reinforced by the delivery of food up to the end of the test session. The percentage of animals selecting the "drug" lever at a particular dose is calculated. In addition, the total number of responses carried out on the two levers is expressed as a percentage of the number of responses carried out on the "solvent" lever obtained on the occasion of a preceding training session.
as §8

5HT1A receptor = assay: Overall in vivo agonist/antagonist behaviour at 5HT1A receptors; set-up: species or system rat (male Wistar); conditions: Tables 1 and 2
5HT1A receptors [3] = target: T1, 5HT1A receptors; assay: Corticosterone secretion (CS), agonist (alone) and antagonist (vs 8-OH-DPAT); type: in vivo, rat (male Wistar); set-up: from tissue; host or cells: whole living male Wistar rats (endogenous receptor)
Procedure: as §1, §2, §3, §4, §5, §6
The CS was determined by a radio-competitive determination for a plasma protein that binds the CS: transcortine. The latter is obtained from a monkey serum. The separation of the CS-transcortine complexes from the free CS was carried out by means of a solution of dextran and active carbon. The detection limit was 50 pg/tube. The intra- and inter-experiment variations in determination were 5 and 15% respectively [cf Rivet J. M. et al, Eur. J. Pharmacol., 183,634-635 (1990)].
The CS base rates in the plasma never being zero, the following formula was used to calculated the percentage inhibition of plasma CS induced by 8-OH-DPAT: [formula]
as §7, §8

5HT1A receptors [4] = target: T1, 5HT1A receptors; assay: Body temperature / hypothermia, agonist (alone) and antagonist (vs 8-OH-DPAT); type: in vivo, rat (male Wistar); set-up: from tissue; host or cells: whole living male Wistar rats (endogenous receptor)
Procedure: as §1, §2, §3, §4
The rats are immobilised and a lubricated digital thermometer (Termistroprobe of Testotherm, Basle, Switzerland) is inserted into the rectum to a depth of 5 cm. 30 seconds after insertion, the temperature is read on a digital scale. The percentage inhibition is calculated using the formula given above.
as §7, §8

5HT1A receptors [5] = target: T1, 5HT1A receptors; assay: Spontaneous tail flick (STF) test, agonist (alone) and antagonist (vs 8-OH-DPAT); type: in vivo, rat (male Wistar); set-up: from tissue; host or cells: whole living male Wistar rats (endogenous receptor)
Procedure: as §1, §2, §3, §4
The tail flicks were determined on the animals in horizontal opaque plastics cylinders with the tail of the animals hanging freely on the edge of the laboratory work bench. After allowing 5 minutes for adaptation, the number of movements made in 5 minutes was recorded. An STF is defined as being an elevation of the tail to a level higher than that of the axis of the body [Millan M. J. et al., J. Pharmacol. Exp. Ther., 256, 973-982 (1990)].
as §7, §8

[6] = agonist test, compound alone s.c., minimum effective dose vs control

## O=C1CC2(CCCC2)CC(=O)N1CCCCN1CCN(c2ncccn2)CC1 [buspirone, reference compound]
5HT1A receptors [1]; rat, sc, read-out: FBP ID50 (95% CL) + DPAT
  ED50: > 10 mg/kg
5HT1A receptors [1]; vs 8-OH-DPAT 0.16 mg/kg s.c.
  % MPA (% maximum possible antagonism), FBP: 0%
5HT1A receptors [2]; read-out: DD 8-OH-DPAT ED50 (95% CL) alone
  ED50: 1.35 mg/kg
5HT1A receptors [2]; read-out: DD 8-OH-DPAT ID50 (95% CL) + DPAT
  ED50: > 2.5 mg/kg
5HT1A receptor
  behaviour at 5HT1A receptor (agonist/antagonist, in words): agonist behaviour
5HT1A receptors [3]; [6]
  CS secretion MED alone: 2.5 mg/kg
5HT1A receptors [3]; rat, sc, read-out: CS secretion ID50 (95% CL) + DPAT
  ED50: > 10 mg/kg
5HT1A receptors [3]; vs 8-OH-DPAT 0.16 mg/kg s.c.
  % MPA (% maximum possible antagonism), CS secretion: 0%
5HT1A receptors [4]; [6]
  H[…] alone: 2.5 mg/kg
5HT1A receptors [4]; rat, sc, read-out: HYPOTHERMIA ID50 (95% CL) + DPAT
  ED50: > 10 mg/kg
5HT1A receptors [4]; vs 8-OH-DPAT 0.16 mg/kg s.c.
  % MPA (% maximum possible antagonism), HYPOTHERMIA: 0%
5HT1A receptors [5]; [6]
  STFs MED alone: > 40.0 mg/kg
5HT1A receptors [5]; vs 8-OH-DPAT 0.63 mg/kg s.c.
  % MPA (% maximum possible antagonism), STFs: 86%
